The results in this text go back to patent publication US9029384B2, “Phosphatidylinositol 3-kinase inhibitors” (Gilead Calistoga LLC, priority 2012, dated 2015).

In general, IC50 refers to the point on the concentration scale where inhibition reaches its midpoint. As a reminder, the EC50 is the concentration that produces a half-maximal response.

One assay has as its target T1, PI3Kδ (Homo sapiens, UniProt O00329).
T1 construct: made in house
Briefly: Enzymatic activity of PI3K isoforms, TR-FRET assay (PIP3 formation). In kind it is biochemical. Conditions: read-out: IC50. The source says: Enzymatic Activity of PI3K Isoforms
The TR-FRET assay was used to monitor formation of the product 3,4,5-inositol triphosphate molecule (PIP3) as it competed with fluorescently labeled PIP3 for binding to the GRP-1 pleckstrin homology domain protein. An increase in […] product results in a decrease in TR-FRET signal as the labeled fluorophore is displaced from the GRP-1 protein binding site.
Class I PI3K isoforms were expressed and purified as heterodimeric recombinant proteins. All assay reagents and buffers for the TR-FRET assay were purchased from Millipore. […] After an assay reaction time of 30 minutes at 25° C., reactions were terminated with a final concentration of 10 mM EDTA, 10 nM labeled-PIP3, and 35 nM Europium labeled GRP-1 detector protein before reading TR-FRET on an Envision plate reader (Ex: 340 nm; Em: 615/665 nm; 100 μs delay and 500 μs read window).
Data are normalized based on a positive (1 uM wortmanin) and negative (DMSO) controls. The α, β, δ, and γ IC50 values were calculated from the fit of the dose-response curves to a four-parameter equation. IC50 are reported in units of nM.
IC50 values were obtained for all PI3K isoforms (α, β, δ, and γ), and Table 2 summarizes the IC50 data collected for PI3Kδ in this Example B1.
For orientation: In TR-FRET formats the signal depends on donor and acceptor labels being close together.

The next assay concerns basophils. Briefly: Basophil activation in human whole blood (Flow2 CAST kit, CD63 positive cells). Conditions: basophils activated with anti-FcεRI mAb or fMLP, geometric mean. Format: cell-based. As for the experimental part:
Effect on basophil activation was measured in human whole blood using the Flow2 CAST® kit (Buhlmann Laboratories AG, Baselstrasse, Switzerland) following the protocol provided by the manufacturer with minor modifications. Human whole blood was collected into K2-EDTA venipuncture tubes. Whole blood samples were treated with either DMSO (0.3% final) or a serial dilution of compounds in DMSO for 60 minutes at 37° C. Basophils were then activated either with anti-FcεRI mAb or with fMLP. To activate basophils using the anti-FcεRI mAb; 50 μl of whole blood was mixed with 110 μl of stimulation buffer (B-BAT-STB) and 20 μl of anti-FcεRI (B-BAT-STCON). To activate basophils with fMLP; 50 μl of whole blood was mixed with 80 μl of stimulation buffer (B-BAT-STB) and 50 μl of fMLP (B-CCR-FMLP). Stimulation buffer was used as a negative control. 20 μl of the staining reagent (combination of anti-human CD63-FITC and anti-human CCR3-PE mAbs) was then added to each tube. […] Subsequently, erythrocytes were lysed and fixed by the addition of 2 ml of lysing solution (B-BAT-LYR) for 10 min at room temperature. Cells were pelleted by centrifugation at 1200 rpm for 10 min at room temperature in a swing-out rotor. Supernatant was aspirated and cell pellet resuspended in 400 μl of wash buffer. Flow cytometric analysis of the basophil activation was performed on a FC500MPL flow cytometer (Beckman Coulter Inc., Fullerton, Calif.). CCR3-staining and side scatter were applied to gate at least 200 basophils that expressed a high density of CCR3. The percent CD63 positive cells within the gated basophil population were determined in different treatment groups and normalized to the vehicle control (0.3% DMSO) with anti-FcεRI mAb of fMLP stimulus as 100%. Final compound concentration was adjusted to correct for dilution effect of added reagents. The EC50 values were calculated from the analysis of the dose-response curves to a four-parameter equation. All EC50 values represent geometric mean values and are reported in units of nM.

Setting [1] is: PI3Kδ, TR-FRET, 2×Km ATP, 10 μM PIP2.

Read-outs that look alike come from different tables or passages of the source.

T1 sequence (O00329 whole entry): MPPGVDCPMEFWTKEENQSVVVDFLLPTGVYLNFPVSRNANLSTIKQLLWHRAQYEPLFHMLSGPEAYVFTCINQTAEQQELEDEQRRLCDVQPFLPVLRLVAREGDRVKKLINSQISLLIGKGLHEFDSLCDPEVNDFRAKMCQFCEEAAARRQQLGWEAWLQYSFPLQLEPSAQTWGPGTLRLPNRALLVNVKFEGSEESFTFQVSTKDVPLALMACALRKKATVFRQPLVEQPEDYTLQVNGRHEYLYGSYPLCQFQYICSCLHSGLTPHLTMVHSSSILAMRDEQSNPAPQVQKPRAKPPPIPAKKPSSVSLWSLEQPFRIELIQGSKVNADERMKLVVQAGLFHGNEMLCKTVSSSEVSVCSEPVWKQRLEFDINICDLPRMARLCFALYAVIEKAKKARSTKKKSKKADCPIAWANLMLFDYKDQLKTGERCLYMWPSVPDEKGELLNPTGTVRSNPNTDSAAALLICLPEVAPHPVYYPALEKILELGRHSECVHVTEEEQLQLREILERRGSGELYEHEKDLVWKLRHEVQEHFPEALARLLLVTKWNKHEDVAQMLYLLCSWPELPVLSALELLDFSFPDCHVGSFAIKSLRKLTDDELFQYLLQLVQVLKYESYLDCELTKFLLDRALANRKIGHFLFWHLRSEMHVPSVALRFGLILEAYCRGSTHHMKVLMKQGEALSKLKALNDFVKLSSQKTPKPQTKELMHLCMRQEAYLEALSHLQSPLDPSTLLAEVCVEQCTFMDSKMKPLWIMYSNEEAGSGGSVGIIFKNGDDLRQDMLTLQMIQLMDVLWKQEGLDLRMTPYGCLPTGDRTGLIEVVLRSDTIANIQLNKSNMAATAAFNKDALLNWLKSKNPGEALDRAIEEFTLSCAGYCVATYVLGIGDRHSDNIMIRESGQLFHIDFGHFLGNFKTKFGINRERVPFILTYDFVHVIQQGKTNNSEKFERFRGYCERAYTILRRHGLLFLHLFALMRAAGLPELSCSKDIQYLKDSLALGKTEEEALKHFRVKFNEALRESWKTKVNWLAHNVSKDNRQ
T1 sequence (P27986 whole entry partner): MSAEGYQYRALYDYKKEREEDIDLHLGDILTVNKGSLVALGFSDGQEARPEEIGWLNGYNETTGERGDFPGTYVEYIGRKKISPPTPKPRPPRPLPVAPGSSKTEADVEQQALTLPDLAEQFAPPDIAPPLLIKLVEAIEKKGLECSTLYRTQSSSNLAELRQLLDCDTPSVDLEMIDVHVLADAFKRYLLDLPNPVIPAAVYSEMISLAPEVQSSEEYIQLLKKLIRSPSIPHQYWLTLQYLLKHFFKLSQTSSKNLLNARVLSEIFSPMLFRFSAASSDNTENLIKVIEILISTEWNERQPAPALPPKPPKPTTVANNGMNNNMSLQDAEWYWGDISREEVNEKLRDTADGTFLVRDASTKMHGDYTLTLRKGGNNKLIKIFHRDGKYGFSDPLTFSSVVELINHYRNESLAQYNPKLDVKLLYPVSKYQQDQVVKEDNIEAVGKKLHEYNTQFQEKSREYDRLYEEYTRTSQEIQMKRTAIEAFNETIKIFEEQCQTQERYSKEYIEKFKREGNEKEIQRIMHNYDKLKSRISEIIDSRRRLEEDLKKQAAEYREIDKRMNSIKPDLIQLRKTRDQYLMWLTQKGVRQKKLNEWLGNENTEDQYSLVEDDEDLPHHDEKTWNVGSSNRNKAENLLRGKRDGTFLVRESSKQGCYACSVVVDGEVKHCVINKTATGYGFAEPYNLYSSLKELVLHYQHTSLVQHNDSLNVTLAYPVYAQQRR

`Cc1c(F)cc(F)cc1-n1c(C(C)Nc2nc(N)nc(N)c2C#N)nc2cccc(Cl)c2c1=O` (single isomer, unassigned) [Compound 200a-1]: on PI3Kδ (setting [1]), the IC50 was in the range of 10 to 50 nM. Also, the EC50 with basophils is 10 to 50 nM.

Regarding `CC(Nc1nc(N)nc(N)c1C#N)c1nc2cccc(F)c2c(=O)n1-c1ccccc1` (single isomer, unassigned) [Compound 81a], at PI3Kδ (setting [1]), the IC50 lay within 1 to 10 nM. Moreover, the EC50 with basophils (Homo sapiens) was less than 1 nM.

For `COc1ccc(C)c(-n2c(C(C)Nc3nc(N)nc(N)c3C#N)nc3cccc(Cl)c3c2=O)c1` (single isomer, unassigned) [Compound 187a-2], the IC50 at PI3Kδ (setting [1]) fell in the range of 1 to 10 nM. Moreover, in the assay with basophils, the EC50 fell in the range of 1 to 10 nM.

On to `CC(Nc1nc(N)nc(N)c1C#N)c1nc2cccc(C#N)c2c(=O)n1-c1cccc(F)c1` (single isomer, unassigned) [Compound 131a], for which, at PI3Kδ (setting [1]), the IC50 fell in the range of 1 to 10 nM. In addition, the EC50 in the assay on basophils (Homo sapiens) lay within 1 to 10 nM.

As to `COc1cccc2c(=O)n(-c3ccccc3)c(C(C)Nc3nc(N)nc(N)c3C#N)nc12` (single isomer, unassigned) [Compound 156a], on PI3Kδ (setting [1]), the IC50 is greater than 50 nM. For the same compound, the EC50 with basophils (Homo sapiens) lay within 10 to 50 nM.

`COc1ccc(C)c(-n2c(C(C)Nc3nc(N)nc(N)c3C#N)nc3cccc(Cl)c3c2=O)c1` (single isomer, unassigned) [Compound 187a-1]: the IC50 at PI3Kδ (setting [1]) lay within 1 to 10 nM. Also, in the assay with basophils, the EC50 lay within 10 to 50 nM.

Consider `COc1cccc(-n2c(C(C)Nc3nc(N)nc(N)c3C#N)nc3cccc(Cl)c3c2=O)c1` (single isomer, unassigned) [Compound 206a], for which, on PI3Kδ (setting [1]), the IC50 is less than 1 nM. Besides, the EC50 in the assay with basophils was less than 1 nM.

For the compound `Cc1ccc(C)c(-n2c(C(C)Nc3nc(N)nc(N)c3C#N)nc3cccc(Cl)c3c2=O)c1` (single isomer, unassigned) [Compound 191a-1], the IC50 at PI3Kδ (setting [1]) is 1 to 10 nM. Besides, the EC50 with basophils was 10 to 50 nM.

With `Cc1c(F)cccc1-n1c(C(C)Nc2nc(N)nc(N)c2C#N)nc2cccc(Cl)c2c1=O` (single isomer, unassigned) [Compound 199a-1], the IC50 at PI3Kδ (setting [1]) was less than 1 nM. Moreover, in the assay with basophils, the 50% effective concentration (EC50) was less than 1 nM.

Take `CC(Nc1nc(N)nc(N)c1C#N)c1nc2cccc(S(C)(=O)=O)c2c(=O)n1-c1ccccc1` (single isomer, unassigned) [Compound 95a]: the IC50 at PI3Kδ (setting [1]) was 1 to 10 nM. The EC50 in the assay on basophils (Homo sapiens) was 10 to 50 nM.

On to `CC(Nc1nc(N)nc(N)c1C#N)c1nc2c(F)ccc(F)c2c(=O)n1-c1ccccc1` (single isomer, unassigned) [Compound 59a], for which, at PI3Kδ (setting [1]), the IC50 is less than 1 nM. For the same compound, the EC50 in the assay on basophils (Homo sapiens) fell in the range of 1 to 10 nM.

For `CC(Nc1nc(N)nc(N)c1C#N)c1nc2cccc(Br)c2c(=O)n1-c1ccccc1` (single isomer, unassigned) [Compound 129a], on PI3Kδ (setting [1]), the IC50 is less than 1 nM. In the assay on basophils (Homo sapiens), the EC50 was less than 1 nM.

Turning to `CC(Nc1nc(N)nc(N)c1C#N)c1nc2c(F)ccc(C#N)c2c(=O)n1-c1cc(F)cc(F)c1` (single isomer, unassigned) [Compound 125a], the IC50 on PI3Kδ (setting [1]) lay in the range of 10 to 50 nM. In addition, the EC50 in the assay on basophils (Homo sapiens) fell in the range of 10 to 50 nM.

`CC(Nc1nc(N)nc(N)c1C#N)c1nc2cccc(Cl)c2c(=O)n1-c1cc(C(F)F)cc(C(F)F)c1` (single isomer, unassigned) [Compound 119a]: the IC50 on PI3Kδ (setting [1]) fell in the range of 1 to 10 nM. Further, the EC50 with basophils (Homo sapiens) lay within 10 to 50 nM.

`Cc1ccc(F)c2nc(C(C)Nc3nc(N)nc(N)c3C#N)n(-c3cccc(C#N)c3)c(=O)c12` (single isomer, unassigned) [Compound 64a]: the IC50 at PI3Kδ (setting [1]) is less than 1 nM. Besides, the EC50 in the assay on basophils (Homo sapiens) fell in the range of 1 to 10 nM.

Turning to `CC(Nc1nc(N)nc(N)c1C#N)c1nc2cccc(S(C)(=O)=O)c2c(=O)n1-c1cccc(C(F)F)c1` (single isomer, unassigned) [Compound 116a], the 50% inhibitory concentration (IC50) at PI3Kδ (setting [1]) was in the range of 1 to 10 nM. Besides, the EC50 in the assay on basophils (Homo sapiens) is greater than 50 nM.

For the compound `CC(Nc1nc(N)nc(N)c1C#N)c1nc2cccc(S(C)(=O)=O)c2c(=O)n1-c1cccc(F)c1` (single isomer, unassigned) [Compound 117a], the IC50 at PI3Kδ (setting [1]) lay within 1 to 10 nM. The EC50 in the assay on basophils (Homo sapiens) lay in the range of 10 to 50 nM.

For the compound `CC(Nc1nc(N)nc(N)c1C#N)c1nc2cccc(Cl)c2c(=O)n1-c1cc(F)cc(C(F)(F)F)c1` (single isomer, unassigned) [Compound 45a], at PI3Kδ (setting [1]), the IC50 fell in the range of 1 to 10 nM. For the same compound, the EC50 in the assay with basophils (Homo sapiens) is greater than 50 nM.

On to `CC(Nc1nc(N)nc(N)c1C#N)c1nc2cccc(S(C)(=O)=O)c2c(=O)n1-c1ccccc1F` (single isomer, unassigned) [Compound 142a-1], for which the IC50 on PI3Kδ (setting [1]) fell in the range of 1 to 10 nM. The EC50 in the assay on basophils (Homo sapiens) lay within 10 to 50 nM.

For the compound `CC(C)C(Nc1nc(N)nc(N)c1C#N)c1nc2cccc(Cl)c2c(=O)n1-c1cc(F)cc(F)c1` (single isomer, unassigned) [Compound 198a], the IC50 on PI3Kδ (setting [1]) is 1 to 10 nM. In addition, the EC50 in the assay on basophils (Homo sapiens) fell in the range of 1 to 10 nM.

Turning to `Cc1ccc(F)cc1-n1c(C(C)Nc2nc(N)nc(N)c2C#N)nc2cccc(Cl)c2c1=O` (single isomer, unassigned) [Compound 201a-1], the IC50 at PI3Kδ (setting [1]) is less than 1 nM. In the assay on basophils (Homo sapiens), the EC50 is less than 1 nM.

Turning to `Cc1cccc(-n2c(C(C)Nc3nc(N)nc(N)c3C#N)nc3cccc(Cl)c3c2=O)c1C` (single isomer, unassigned) [Compound 202a-1], the IC50 on PI3Kδ (setting [1]) was less than 1 nM. For the same compound, the EC50 with basophils fell in the range of 1 to 10 nM.

In the case of `CC[C@H](C)[C@H](Nc1nc(N)nc(N)c1C#N)c1nc2cccc(Cl)c2c(=O)n1-c1cc(F)cc(F)c1` [Compound 164a, 2,4-diamino-6-(((1S,2S)-1-(5-chloro-3-(3,5-difluorophenyl)-4-oxo-3,4-dihydroquinazolin-2-yl)-2-methylbutyl)amino)pyrimidine-5-carbonitrile], the IC50 at PI3Kδ (setting [1]) was 1 to 10 nM. For the same compound, the EC50 in the assay with basophils (Homo sapiens) is greater than 50 nM.

`CC(Nc1nc(N)nc(N)c1C#N)c1nc2ccc(F)cc2c(=O)n1-c1cccc(Cl)c1` (single isomer, unassigned) [Compound 14a]: at PI3Kδ (setting [1]), the IC50 lay in the range of 1 to 10 nM. For the same compound, the EC50 in the assay with basophils (Homo sapiens) lay in the range of 1 to 10 nM.

For the compound `CC(Nc1nc(N)nc(N)c1C#N)c1nc2cccc(C(N)=O)c2c(=O)n1-c1ccccc1` (single isomer, unassigned) [Compound 92a], on PI3Kδ (setting [1]), the IC50 was 1 to 10 nM. Besides, the EC50 in the assay with basophils (Homo sapiens) is greater than 50 nM.

As for `Cc1cccc(-n2c(C(C)Nc3nc(N)nc(N)c3C#N)nc3cccc(Cl)c3c2=O)c1C` (single isomer, unassigned) [Compound 202a-2], the IC50 on PI3Kδ (setting [1]) was 10 to 50 nM. For the same compound, the EC50 in the assay with basophils is greater than 50 nM.

As to `Cc1ccc(C)c(-n2c(C(C)Nc3nc(N)nc(N)c3C#N)nc3cccc(Cl)c3c2=O)c1` (single isomer, unassigned) [Compound 191a-2], the IC50 at PI3Kδ (setting [1]) lay in the range of 1 to 10 nM. Also, the EC50 in the assay on basophils lay in the range of 1 to 10 nM.

On to `CC(Nc1nc(N)nc(N)c1C#N)c1nc2cccc(Cl)c2c(=O)n1-c1cc(C(F)F)cc(C(F)F)c1` (single isomer, unassigned) [Compound 137a], for which, on PI3Kδ (setting [1]), the IC50 lay in the range of 1 to 10 nM. Besides, the EC50 in the assay on basophils is 10 to 50 nM.

For the compound `CC(Nc1nc(N)nc(N)c1C#N)c1cc2cccc(Cl)c2c(=O)n1-c1ccccc1` (single isomer, unassigned) [Compound 196a], on PI3Kδ, the IC50 is less than 1 nM. Moreover, the EC50 in the assay on basophils was less than 1 nM.

For the compound `COc1cccc2nc(C(C)Nc3nc(N)nc(N)c3C#N)n(-c3ccccc3)c(=O)c12` (single isomer, unassigned) [Compound 111a], on PI3Kδ (setting [1]), the IC50 was 10 to 50 nM. Besides, in the assay on basophils (Homo sapiens), the EC50 was greater than 50 nM.

On to `CC(Nc1nc(N)nc(N)c1C#N)c1nc2ccc(F)cc2c(=O)n1-c1ccccc1` (single isomer, unassigned) [Compound 9a], for which, at PI3Kδ (setting [1]), the IC50 was 1 to 10 nM. In addition, the EC50 in the assay with basophils (Homo sapiens) lay in the range of 1 to 10 nM.
